{"source": "paper PMC4460958", "about": "(Frontiers in Neurology, 2015)", "target": "T1, human dopamine transporter (hDAT) (Homo sapiens, UniProt Q01959)", "T1 construct": "gene SLC6A3", "T1 sequence (Q01959 whole entry)": "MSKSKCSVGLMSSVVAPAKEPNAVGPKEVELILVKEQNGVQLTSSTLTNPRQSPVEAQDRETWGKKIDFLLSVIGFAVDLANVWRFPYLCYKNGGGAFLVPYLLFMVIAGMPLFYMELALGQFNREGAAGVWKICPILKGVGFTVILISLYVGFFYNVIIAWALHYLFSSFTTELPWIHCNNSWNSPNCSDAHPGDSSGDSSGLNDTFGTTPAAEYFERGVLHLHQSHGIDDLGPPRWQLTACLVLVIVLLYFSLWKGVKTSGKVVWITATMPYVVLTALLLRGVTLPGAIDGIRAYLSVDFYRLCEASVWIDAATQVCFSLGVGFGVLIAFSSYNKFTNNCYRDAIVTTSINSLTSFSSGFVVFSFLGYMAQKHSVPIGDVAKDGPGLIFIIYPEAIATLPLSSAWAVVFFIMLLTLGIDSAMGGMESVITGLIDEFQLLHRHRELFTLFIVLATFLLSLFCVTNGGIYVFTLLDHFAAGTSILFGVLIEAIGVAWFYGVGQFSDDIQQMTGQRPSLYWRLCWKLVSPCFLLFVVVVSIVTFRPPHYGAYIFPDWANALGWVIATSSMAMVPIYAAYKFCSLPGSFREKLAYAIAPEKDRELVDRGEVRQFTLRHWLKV"}
{"smiles": "NCCc1ccc(O)c(O)c1", "note": "[DA, dopamine]", "values": [{"measurement": "3H-dopamine uptake kinetics (Km, Vmax) in PAE cells stably expressing hDAT", "result": "Michaelis–Menten non-linear regression analysis was performed, providing transporter dopamine affinity (Km) and capacity (Vmax) for each condition"}]}
